Test results published in ChEMBL document CHEMBL4609994, “Application of protein knockdown strategy targeting β-sheet structure to multiple disease-associated polyglutamine proteins” (Bioorg Med Chem, 2020).
Activity calls are given as the source filed them. No cut-off for these calls is given here.

Key:
[1] = test system: Baculoviral IAP repeat-containing protein 2/Ataxin-3 (Homo sapiens), Q13490+P54252 [UNDEFINED MUTATION]; experiment: Protac activity at C-IAP1/Ataxin-3 mutant in fibroblasts derived from SCA3 patient assessed as reduction in mutant ataxin-3 expression after 24 to 48 hrs by Western blot analysis
[2] = test system: Baculoviral IAP repeat-containing protein 2/Ataxin-7 (Homo sapiens), Q13490+O15265 [UNDEFINED MUTATION]; experiment: Protac activity at C-IAP1/ataxin-7 mutant in fibroblasts derived from SCA7 patient assessed as reduction in mutant ataxin-7 expression after 24 to 48 hrs by Western blot analysis
[3] = test system: Baculoviral IAP repeat-containing protein 2/Atrophin-1 (Homo sapiens), Q13490+P54259 [UNDEFINED MUTATION]; experiment: Protac activity at C-IAP1/atrophin-1 mutant in fibroblasts derived from DRPLA patient assessed as reduction in mutant atrophin-1 expression after 24 to 48 hrs by Western blot analysis
[4] = test system: Baculoviral IAP repeat-containing protein 2/Ataxin-3 (Homo sapiens), Q13490+P54252 [UNDEFINED MUTATION]; experiment: Protac activity at C-IAP1/ataxin-3 mutant in fibroblasts derived from SCA3 patient assessed as reduction in mutant ataxin-3 expression at 10 uM by Western blot analysis; settings: TDE = time-dependent effect
[5] = test system: Baculoviral IAP repeat-containing protein 2/Ataxin-7 (Homo sapiens), Q13490+O15265 [UNDEFINED MUTATION]; experiment: Protac activity at C-IAP1/ataxin-7 mutant in fibroblasts derived from SCA7 patient assessed as reduction in mutant ataxin-7 expression at 10 uM by Western blot analysis; settings: TDE = time-dependent effect
[6] = test system: Baculoviral IAP repeat-containing protein 2/Atrophin-1 (Homo sapiens), Q13490+P54259 [UNDEFINED MUTATION]; experiment: Protac activity at C-IAP1/atrophin-1 mutant in fibroblasts derived from DRPLA patient assessed as reduction in mutant atrophin-1 expression at 10 uM by Western blot analysis; settings: TDE = time-dependent effect
[7] = test system: Baculoviral IAP repeat-containing protein 2/Ataxin-7 (Homo sapiens), Q13490+O15265 [UNDEFINED MUTATION]; experiment: Protac activity at C-IAP1/ataxin-7 mutant in fibroblasts derived from SCA7 patient assessed as reduction in mutant ataxin-7 expression at 10 uM after 24 hrs by Western blot analysis
[8] = test system: Baculoviral IAP repeat-containing protein 2/Atrophin-1 (Homo sapiens), Q13490+P54259 [UNDEFINED MUTATION]; experiment: Protac activity at C-IAP1/atrophin-1 mutant in fibroblasts derived from DRPLA patient assessed as reduction in mutant atrophin-1 expression at 10 uM after 24 hrs by Western blot analysis
[9] = test system: Baculoviral IAP repeat-containing protein 2/Ataxin-7 (Homo sapiens), Q13490+O15265 [UNDEFINED MUTATION]; experiment: Protac activity at C-IAP1/ataxin-7 mutant in fibroblasts derived from SCA7 patient assessed as reduction in mutant ataxin-7 expression at 10 uM after 24 hrs in presence of proteasome inhibitor MG132 by Western blot analysis
[10] = test system: Baculoviral IAP repeat-containing protein 2/Atrophin-1 (Homo sapiens), Q13490+P54259 [UNDEFINED MUTATION]; experiment: Protac activity at C-IAP1/atrophin-1 mutant in fibroblasts derived from DRPLA patient assessed as reduction in mutant atrophin-1 expression at 10 uM after 24 hrs in presence of proteasome inhibitor MG132 by Western blot analysis
[11] = test system: Baculoviral IAP repeat-containing protein 2/Ataxin-7 (Homo sapiens), Q13490+O15265 [UNDEFINED MUTATION]; experiment: Protac activity at C-IAP1/ataxin-7 mutant in fibroblasts derived from SCA7 patient assessed as reduction in mutant ataxin-7 expression at 10 uM after 24 hrs in presence of proteasome inhibitor epoxomicin by Western blot analysis
[12] = test system: Baculoviral IAP repeat-containing protein 2/Atrophin-1 (Homo sapiens), Q13490+P54259 [UNDEFINED MUTATION]; experiment: Protac activity at C-IAP1/atrophin-1 mutant in fibroblasts derived from DRPLA patient assessed as reduction in mutant atrophin-1 expression at 10 uM after 24 hrs in presence of proteasome inhibitor epoxomicin by Western blot analysis

Baculoviral IAP repeat-containing protein 2/Ataxin-7 (Homo sapiens), Q13490+O15265 [UNDEFINED MUTATION], sequence (O15265 whole entry, looked up, change not shown): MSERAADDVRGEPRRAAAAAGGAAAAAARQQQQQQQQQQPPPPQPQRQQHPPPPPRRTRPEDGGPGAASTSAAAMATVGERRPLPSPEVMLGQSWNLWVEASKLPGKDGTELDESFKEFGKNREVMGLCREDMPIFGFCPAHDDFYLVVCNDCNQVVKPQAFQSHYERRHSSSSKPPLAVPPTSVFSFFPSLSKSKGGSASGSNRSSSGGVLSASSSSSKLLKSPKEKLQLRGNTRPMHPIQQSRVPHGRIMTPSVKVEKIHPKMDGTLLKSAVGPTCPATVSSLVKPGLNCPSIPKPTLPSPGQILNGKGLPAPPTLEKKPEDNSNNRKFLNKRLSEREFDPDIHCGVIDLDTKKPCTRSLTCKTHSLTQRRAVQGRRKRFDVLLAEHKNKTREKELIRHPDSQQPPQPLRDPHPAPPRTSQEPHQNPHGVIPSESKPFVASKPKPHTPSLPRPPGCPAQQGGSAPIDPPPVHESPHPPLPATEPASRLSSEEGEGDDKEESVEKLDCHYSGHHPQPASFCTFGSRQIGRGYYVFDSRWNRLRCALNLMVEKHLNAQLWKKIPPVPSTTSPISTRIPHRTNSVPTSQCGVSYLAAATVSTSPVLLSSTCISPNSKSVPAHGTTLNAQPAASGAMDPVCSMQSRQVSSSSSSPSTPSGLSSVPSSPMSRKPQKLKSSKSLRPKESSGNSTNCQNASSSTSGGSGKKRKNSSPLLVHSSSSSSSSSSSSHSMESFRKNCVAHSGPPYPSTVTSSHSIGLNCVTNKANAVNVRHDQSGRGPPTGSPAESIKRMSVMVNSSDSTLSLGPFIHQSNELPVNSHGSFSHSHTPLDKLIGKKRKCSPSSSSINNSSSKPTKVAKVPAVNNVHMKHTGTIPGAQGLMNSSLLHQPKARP
Baculoviral IAP repeat-containing protein 2/Ataxin-7 (Homo sapiens), Q13490+O15265 [UNDEFINED MUTATION], sequence (Q13490 whole entry, looked up, change not shown): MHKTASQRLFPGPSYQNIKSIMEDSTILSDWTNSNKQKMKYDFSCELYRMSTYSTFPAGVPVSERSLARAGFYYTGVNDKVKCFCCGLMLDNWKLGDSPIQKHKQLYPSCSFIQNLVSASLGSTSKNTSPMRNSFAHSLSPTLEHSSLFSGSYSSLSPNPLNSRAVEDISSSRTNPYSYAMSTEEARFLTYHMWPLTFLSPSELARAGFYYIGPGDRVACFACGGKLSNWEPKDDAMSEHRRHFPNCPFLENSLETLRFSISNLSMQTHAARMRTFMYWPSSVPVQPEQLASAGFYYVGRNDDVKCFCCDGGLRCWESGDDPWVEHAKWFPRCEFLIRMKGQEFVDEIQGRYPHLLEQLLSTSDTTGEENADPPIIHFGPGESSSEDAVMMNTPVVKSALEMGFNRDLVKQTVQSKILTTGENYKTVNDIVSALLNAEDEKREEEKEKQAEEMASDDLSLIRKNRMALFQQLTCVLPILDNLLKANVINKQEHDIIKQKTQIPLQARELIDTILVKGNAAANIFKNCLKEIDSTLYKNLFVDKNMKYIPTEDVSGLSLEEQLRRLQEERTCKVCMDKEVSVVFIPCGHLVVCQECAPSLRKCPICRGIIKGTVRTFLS
Baculoviral IAP repeat-containing protein 2/Atrophin-1 (Homo sapiens), Q13490+P54259 [UNDEFINED MUTATION], sequence (P54259 whole entry, looked up, change not shown): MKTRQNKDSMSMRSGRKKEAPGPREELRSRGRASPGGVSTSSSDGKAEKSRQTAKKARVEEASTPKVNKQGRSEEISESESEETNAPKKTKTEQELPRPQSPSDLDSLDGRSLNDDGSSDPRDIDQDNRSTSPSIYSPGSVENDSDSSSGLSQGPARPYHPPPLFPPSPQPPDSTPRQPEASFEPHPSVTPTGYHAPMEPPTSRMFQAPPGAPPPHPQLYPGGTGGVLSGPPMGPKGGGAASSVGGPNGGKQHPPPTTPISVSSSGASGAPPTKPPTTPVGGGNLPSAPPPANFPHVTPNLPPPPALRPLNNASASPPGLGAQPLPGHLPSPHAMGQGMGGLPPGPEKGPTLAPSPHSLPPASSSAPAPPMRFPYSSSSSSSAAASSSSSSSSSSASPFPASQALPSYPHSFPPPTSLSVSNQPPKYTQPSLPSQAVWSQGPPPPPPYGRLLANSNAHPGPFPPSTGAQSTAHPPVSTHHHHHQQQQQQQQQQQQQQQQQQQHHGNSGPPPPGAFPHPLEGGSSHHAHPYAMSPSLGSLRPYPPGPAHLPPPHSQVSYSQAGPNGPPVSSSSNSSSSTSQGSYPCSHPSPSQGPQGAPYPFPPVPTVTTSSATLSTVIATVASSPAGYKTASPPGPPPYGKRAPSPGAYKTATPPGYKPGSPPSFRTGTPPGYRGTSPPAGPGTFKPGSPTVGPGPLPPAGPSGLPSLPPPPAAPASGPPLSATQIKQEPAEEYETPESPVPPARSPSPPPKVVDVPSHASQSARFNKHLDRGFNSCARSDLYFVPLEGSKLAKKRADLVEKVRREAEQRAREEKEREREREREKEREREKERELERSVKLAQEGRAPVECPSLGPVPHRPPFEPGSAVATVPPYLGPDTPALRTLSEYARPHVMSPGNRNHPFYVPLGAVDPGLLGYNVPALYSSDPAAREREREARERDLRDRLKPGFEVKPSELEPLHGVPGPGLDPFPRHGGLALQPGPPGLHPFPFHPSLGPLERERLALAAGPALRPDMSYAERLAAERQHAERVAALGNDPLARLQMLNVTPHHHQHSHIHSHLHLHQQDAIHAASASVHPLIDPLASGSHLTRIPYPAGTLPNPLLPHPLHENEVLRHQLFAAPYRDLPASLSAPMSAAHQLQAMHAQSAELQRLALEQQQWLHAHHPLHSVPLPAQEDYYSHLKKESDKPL
Baculoviral IAP repeat-containing protein 2/Atrophin-1 (Homo sapiens), Q13490+P54259 [UNDEFINED MUTATION], sequence (Q13490 whole entry, looked up, change not shown): as the sequence (Q13490 whole entry, looked up, change not shown) above
Baculoviral IAP repeat-containing protein 2/Ataxin-3 (Homo sapiens), Q13490+P54252 [UNDEFINED MUTATION], sequence (P54252 whole entry, looked up, change not shown): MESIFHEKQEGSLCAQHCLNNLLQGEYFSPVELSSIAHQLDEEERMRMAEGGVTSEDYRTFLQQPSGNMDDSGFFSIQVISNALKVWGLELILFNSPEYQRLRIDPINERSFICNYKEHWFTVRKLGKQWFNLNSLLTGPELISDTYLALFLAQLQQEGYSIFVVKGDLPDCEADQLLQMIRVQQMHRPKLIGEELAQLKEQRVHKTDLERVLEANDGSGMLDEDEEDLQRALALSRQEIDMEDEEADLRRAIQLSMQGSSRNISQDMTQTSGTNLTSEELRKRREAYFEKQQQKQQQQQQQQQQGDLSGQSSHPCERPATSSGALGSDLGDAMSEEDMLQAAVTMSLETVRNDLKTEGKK
Baculoviral IAP repeat-containing protein 2/Ataxin-3 (Homo sapiens), Q13490+P54252 [UNDEFINED MUTATION], sequence (Q13490 whole entry, looked up, change not shown): as the sequence (Q13490 whole entry, looked up, change not shown) above

Row | Compound | Activity [1] | Activity [2] | Activity [3] | Activity [4] | Activity [5] | Activity [6] | Activity [7] | Activity [8] | Activity [9] | Activity [10] | Activity [11] | Activity [12]
1 | Cc1ccc2nc(-c3ccc(NCCOCCOCCNC(=O)[C@H](CC(C)C)NC(=O)[C@@H](O)[C@H](N)Cc4ccccc4)cc3)sc2c1 | Dose-dependent effect | Dose-dependent effect | Dose-dependent effect | Tde | Tde | Tde | Active | Active | inactive | inactive | inactive | inactive
2 | CNc1ccc(-c2nc3ccc(C)cc3s2)cc1 |  |  |  |  |  |  | inactive | inactive |  |  |  | 
3 | CC(C)C[C@H](NC(=O)[C@@H](O)[C@H](N)Cc1ccccc1)C(=O)NCCOCCOCCOc1ccc2nc(/N=N/c3ccc(N(C)C)cc3)sc2c1 | Dose-dependent effect | Dose-dependent effect | Dose-dependent effect | Tde | Tde | Tde |  |  |  |  |  | 
4 | CNC(=O)[C@H](CC(C)C)NC(=O)[C@@H](O)[C@H](N)Cc1ccccc1 |  |  |  |  |  |  | inactive | inactive |  |  |  | 
